Test results as given in publication PMC8597734 (Antimicrobial Agents and Chemotherapy, 2021).
Converted amounts (≈) assume the structure as drawn. Where two headings read alike, the source gives them in different places.

How the values were obtained:
[1] = system: M. intracellulare ATCC 13950; experiment: microbe, parasite or virus in culture; assay type: cell-based; conditions: Mycobacterium intracellulare, ATCC13950, 96 h
[2] = system: M. abscessus subsp. abscessus K21; experiment: M. abscessus mouse infection model; assay type: in vivo, Mycobacterium abscessus; conditions: NOD SCID mice, intranasal infection
Experimental: In vivo efficacy determinations were carried out as described previously, using 8-week-old female NOD.CB17-Prkdc^scid/NCrCrl (NOD SCID) mice (Charles River Laboratories) and the M. abscessus subsp. abscessus K21 strain ([48]). Briefly, anesthetized animals were infected by intranasal delivery of ∼10^6 CFU of M. abscessus subsp. abscessus K21. Acute infection was achieved within 1 day. Drugs or the vehicle control was administered to NOD SCID mice once daily for 10 consecutive days by oral gavage, starting from 1 day postinfection. Clarithromycin was formulated in 0.4% methyl cellulose–sterile water and administered at a dose of 250 mg/kg. […] EC/11716 was formulated in 0.4% methyl cellulose–sterile water and administered at 400 mg/kg. All mice were euthanized 24 h after the last dose (11 days postinfection), and their lungs and spleen were aseptically removed prior to homogenization. The bacterial load in these organs was determined by plating serial dilutions of the organ homogenates onto Middlebrook 7H11 agar (BD Difco) supplemented with 0.2% (vol/vol) glycerol and 10% (vol/vol) OADC. The agar plates were incubated for 5 days at 37°C prior to counting of colonies. All studies were conducted in accordance with the GSK Policy on the Care, Welfare and Treatment of Laboratory Animals and were reviewed the Institutional Animal Care and Use Committee either at GSK or by the ethical review process at the institution where the work was performed. All experiments involving live animals were approved by the Institutional Animal Care and Use Committee of the Center for Discovery and Innovation, Hackensack Meridian Health.

[3] = system: M. abscessus Bamboo biofilms; experiment: Biofilm growth inhibition assay (biofilm MIC and MBC); assay type: cell-based, Mycobacterium abscessus; conditions: Mycobacteroides abscessus, Biofilm, M. abscessus Bamboo; for MBC: 10-fold reduction of CFU/peg vs 24 h; for MIC: 90% reduction of CFU/peg relative to drug-free biofilm growth, 48 h
Experimental: The biofilm growth inhibition assay was performed as previously described ([52]). Innovotech MBEC 96-well Biofilm Assay Plates (Innovotech 19111, Edmonton, AB, Alberta, Canada) were used, and the supplier’s manual was followed with minor modifications. Midlog phase M. abscessus Bamboo precultures (OD600 = 0.4–0.6) were spun down at 3,200 × g for 10 min at 25°C and washed with 7H9 medium without Tween 80 (7H9nt). Bacteria were resuspended into 25 ml 7H9nt to an OD600 = 0.0125 (1.0 × 10^6 CFU/ml). 150 μl of bacteria suspension was dispensed into each well of MBEC multititer plates and the polystyrene protrusions (pegs) of the MBEC lid were inserted into the culture-containing wells for 24 h at 37°C on an orbital shaker at 110 rpm to allow attachment of the bacteria to the pegs and initiation of biofilm growth. The lids with the pegs (now with 1-day-old biofilms) were transferred to new MBEC multititer plates containing 150 μl of fresh 7H9nt medium per well without bacteria (0 h time point). After that, the lids with biofilm-laden pegs were transferred once a day to a new multititer plate containing fresh 7H9nt medium. To measure growth of the biofilm formed on the peg, the pegs were washed in 200 μl of 7H9nt medium before they were aseptically removed and placed in 1.7 ml microcentrifuge tubes (VWR 87003-294, Rador, PA, United States) containing 500 μl PBS/Tween 80. The microcentrifuge tubes were vigorously vortexed at 2,000 rpm for 90 s at 25°C to detach the bacteria from the pegs before samples were serially diluted and plated for the determination of CFU/peg. […] The average drug-free biofilm growth was calculated by subtracting the average 24 h CFU/peg value from the average 72 h CFU/peg value for the untreated control pegs. The biofilm MIC was defined as the lowest drug concentration that reduced the CFU/peg by 90% relative to the average drug-free biofilm growth.

[4] = system: M. abscessus subsp. abscessus ATCC 19977; experiment: microbe, parasite or virus in culture; assay type: cell-based, Mycobacterium abscessus; conditions: Mycobacteroides abscessus
[5] = system: M. abscessus subsp. abscessus M404; experiment: microbe, parasite or virus in culture; assay type: cell-based, Mycobacterium abscessus; conditions: Mycobacteroides abscessus, 72 h
[6] = system: M. abscessus subsp. bolletii M506; experiment: microbe, parasite or virus in culture; assay type: cell-based, Mycobacterium abscessus; conditions: Mycobacteroides abscessus, 72 h
[7] = system: M. abscessus Bamboo RM2 (GyrA D91N); experiment: microbe, parasite or virus in culture; assay type: cell-based, Mycobacterium abscessus; conditions: Mycobacteroides abscessus
[8] = system: M. abscessus ATCC 19977 MXF_R2 (GyrA D96N); experiment: microbe, parasite or virus in culture; assay type: cell-based, Mycobacterium abscessus
[9] = system: M. abscessus subsp. abscessus M337; experiment: microbe, parasite or virus in culture; assay type: cell-based, Mycobacterium abscessus; conditions: Mycobacteroides abscessus, 72 h
[10] = system: M. abscessus subsp. abscessus K21; experiment: microbe, parasite or virus in culture; assay type: cell-based, Mycobacterium abscessus; conditions: Mycobacteroides abscessus, 72 h
[11] = system: M. avium 11; experiment: microbe, parasite or virus in culture; assay type: cell-based; conditions: Mycobacterium avium, 11, 96 h
[12] = system: M. abscessus subsp. abscessus M422; experiment: microbe, parasite or virus in culture; assay type: cell-based, Mycobacterium abscessus; conditions: Mycobacteroides abscessus, 72 h
[13] = system: M. abscessus Bamboo RM1 (GyrA M129K); experiment: microbe, parasite or virus in culture; assay type: cell-based, Mycobacterium abscessus; conditions: Mycobacteroides abscessus
[14] = system: M. abscessus subsp. massiliense M111; experiment: microbe, parasite or virus in culture; assay type: cell-based, Mycobacterium abscessus; conditions: Mycobacteroides abscessus, 72 h
[15] = system: anaerobic, nonreplicating M. abscessus Bamboo; experiment: MBC determination under anaerobic conditions; assay type: cell-based, Mycobacterium abscessus; conditions: Mycobacteroides abscessus, 48 h drug exposure
[16] = system: M. abscessus Bamboo RM4 (GyrA D91G); experiment: microbe, parasite or virus in culture; assay type: cell-based, Mycobacterium abscessus; conditions: Mycobacteroides abscessus
[17] = system: M. abscessus subsp. abscessus M199; experiment: microbe, parasite or virus in culture; assay type: cell-based, Mycobacterium abscessus; conditions: Mycobacteroides abscessus, 72 h
[18] = system: M. abscessus Bamboo; experiment: microbe, parasite or virus in culture; assay type: cell-based, Mycobacterium abscessus; conditions: Mycobacteroides abscessus
[19] = system: M. abscessus subsp. bolletii CCUG 50184T; experiment: microbe, parasite or virus in culture; assay type: cell-based, Mycobacterium abscessus; conditions: Mycobacteroides abscessus, 72 h
[20] = system: M. abscessus Bamboo; experiment: MIC and MBC determination in culture tubes (planktonic); assay type: cell-based, Mycobacterium abscessus; conditions: for MBC: 10-fold reduction in CFU/ml vs day 0; for MIC: 48 h, day 2
[21] = system: M. abscessus subsp. abscessus M9; experiment: microbe, parasite or virus in culture; assay type: cell-based, Mycobacterium abscessus; conditions: Mycobacteroides abscessus, 72 h
[22] = system: M. abscessus Bamboo RM3 (GyrA D91N); experiment: microbe, parasite or virus in culture; assay type: cell-based, Mycobacterium abscessus; conditions: Mycobacteroides abscessus
[23] = system: nutrient-starved, nonreplicating M. abscessus Bamboo; experiment: MBC determination under nutrient-starved conditions; assay type: cell-based, Mycobacterium abscessus; conditions: Mycobacteroides abscessus, 48 h drug exposure
Experimental: The determination of drug bactericidal activity against nutrient-starved M. abscessus cultures was performed as previously described ([52]). […] Washed culture was then diluted with PBS/Tyloxapol to OD600 = 0.2 (1.8 × 10^7 CFU/ml). […] Appropriate concentrations of drugs up to 100 μM were added to the tubes prior to incubation at 37°C on a tilted rack in an orbital shaker at 220 rpm.

[24] = system: M. abscessus subsp. massiliense CCUG 48898T; experiment: microbe, parasite or virus in culture; assay type: cell-based, Mycobacterium abscessus; conditions: Mycobacteroides abscessus, 72 h
[25] = system: M. abscessus ATCC 19977 MXF_R1 (GyrA D96Y); experiment: microbe, parasite or virus in culture; assay type: cell-based, Mycobacterium abscessus
[26] = system: M. abscessus ATCC 19977 MXF_R3 (GyrA D96G); experiment: microbe, parasite or virus in culture; assay type: cell-based, Mycobacterium abscessus
[27] = system: M. abscessus subsp. bolletii M232; experiment: microbe, parasite or virus in culture; assay type: cell-based, Mycobacterium abscessus; conditions: Mycobacteroides abscessus, 72 h
[28] = system: M. tuberculosis H37Rv ATCC 27294; experiment: microbe, parasite or virus in culture; assay type: cell-based; conditions: Mycobacterium tuberculosis, 168 h
[29] = Mycobacteroides abscessus, ATCC19977

CC[C@H]1OC(=O)[C@H](C)[C@@H](O[C@H]2C[C@@](C)(OC)[C@@H](O)[C@H](C)O2)[C@H](C)[C@@H](O[C@@H]2O[C@H](C)C[C@H](N(C)C)[C@H]2O)[C@](C)(OC)C[C@@H](C)C(=O)[C@H](C)[C@@H](O)[C@]1(C)O [CLR, clarithromycin]
MIC [1]: 0.15 µM (≈ 0.112 µg/mL) | reduction in lung CFU ([2]; 250 mg/kg oral once daily for 10 days, EC/11716 reduction stated on par with it): ~1 log | MBC [3]: > 100 µM | MIC [3]: 1.6 µM (≈ 1.2 µg/mL) | MIC ([4]; ATCC19977): 1.2 µM (≈ 0.898 µg/mL) | MIC ([4]; ATCC19977, 72 h): 0.9 µM (≈ 0.673 µg/mL) | MIC [5]: 0.2 µM (≈ 0.15 µg/mL) | MIC [6]: 0.28 µM (≈ 0.209 µg/mL) | MIC [7]: 0.29 µM (≈ 0.217 µg/mL) | MIC [8, 29]: 0.73 µM (≈ 0.546 µg/mL) | MIC [9]: 0.9 µM (≈ 0.673 µg/mL) | MIC [10]: 0.4 µM (≈ 0.299 µg/mL) | MIC [11]: 0.3 µM (≈ 0.224 µg/mL) | MIC [12]: 0.65 µM (≈ 0.486 µg/mL) | MIC [13]: 0.24 µM (≈ 0.18 µg/mL) | MIC [14]: 0.24 µM (≈ 0.18 µg/mL) | MBC [15]: > 100 µM | MIC [16]: 0.26 µM (≈ 0.194 µg/mL) | MIC [17]: 2.7 µM (≈ 2.02 µg/mL) | MIC [18]: 0.33 µM (≈ 0.247 µg/mL) | MIC ([18]; 72 h): 0.23 µM (≈ 0.172 µg/mL) | MIC [19]: 2.5 µM (≈ 1.87 µg/mL) | MBC [20]: >100 µM | MBC ([20]; Mycobacteroides abscessus, 0 h): > 100 µM | MIC ([20]; Mycobacteroides abscessus): 0.28 µM (≈ 0.209 µg/mL) | MIC [21]: 0.73 µM (≈ 0.546 µg/mL) | MIC [22]: 0.27 µM (≈ 0.202 µg/mL) | MBC [23]: > 100 µM | MIC [24]: 0.19 µM (≈ 0.142 µg/mL) | MIC [25, 29]: 1.5 µM (≈ 1.12 µg/mL) | MIC [26, 29]: 0.34 µM (≈ 0.254 µg/mL) | MIC [27]: 0.95 µM (≈ 0.711 µg/mL)

COc1c(N2C[C@@H]3CCCN[C@@H]3C2)c(F)cc2c(=O)c(C(=O)O)cn(C3CC3)c12 [MXF, moxifloxacin]
MIC [1]: 0.4 µM (≈ 0.161 µg/mL) | reduction in lung CFU burden ([2]; 200 mg/kg oral once daily for 10 days, not statistically significant): 0.6 log | MBC [3]: 25 µM (≈ 10 µg/mL) | MIC [3]: 6 µM (≈ 2.41 µg/mL) | MIC [28]: 0.6 µM (≈ 0.241 µg/mL) | MIC ([4]; ATCC19977): 3.6 µM (≈ 1.45 µg/mL) | MIC ([4]; ATCC19977, 72 h): 3.6 µM (≈ 1.45 µg/mL) | MIC [5]: 5 µM (≈ 2.01 µg/mL) | MIC [6]: 7.1 µM (≈ 2.85 µg/mL) | MIC [7]: 42 µM (≈ 16.9 µg/mL) | MIC [8]: 68 µM (≈ 27.3 µg/mL) | MIC [8, 29]: > 50 µM | MIC [9]: 2.9 µM (≈ 1.16 µg/mL) | MIC [10]: 7.3 µM (≈ 2.93 µg/mL) | MIC [11]: 1.3 µM (≈ 0.522 µg/mL) | MIC [12]: 2.7 µM (≈ 1.08 µg/mL) | MIC [13]: 20 µM (≈ 8.03 µg/mL) | MIC [14]: 6.7 µM (≈ 2.69 µg/mL) | MIC [16]: 27 µM (≈ 10.8 µg/mL) | MIC [17]: 4.8 µM (≈ 1.93 µg/mL) | MIC [18]: 5.4 µM (≈ 2.17 µg/mL) | MIC ([18]; 72 h): 4.6 µM (≈ 1.85 µg/mL) | MIC [19]: 6.3 µM (≈ 2.53 µg/mL) | MBC ([20]; Mycobacteroides abscessus, 0 h): 3.1 µM (≈ 1.24 µg/mL) | MIC ([20]; Mycobacteroides abscessus): 1.9 µM (≈ 0.763 µg/mL) | MIC [21]: 2.9 µM (≈ 1.16 µg/mL) | MIC [22]: 47 µM (≈ 18.9 µg/mL) | MIC [24]: 8 µM (≈ 3.21 µg/mL) | MIC [25]: >100 µM | MIC [25, 29]: > 50 µM | MIC [26]: 54 µM (≈ 21.7 µg/mL) | MIC [26, 29]: > 50 µM | MIC [27]: 3.2 µM (≈ 1.28 µg/mL)

CO[C@H]1/C=C/O[C@@]2(C)Oc3c(C)c(O)c4c(O)c(c(/C=N/N5CCN(C)CC5)c(O)c4c3C2=O)NC(=O)/C(C)=C\C=C\[C@H](C)[C@H](O)[C@@H](C)[C@@H](O)[C@@H](C)[C@H](OC(C)=O)[C@@H]1C [rifampin]
MIC [28]: 0.66 µM (≈ 0.543 µg/mL)
